From patent US20190381086A1, “INHIBITION OF NEDDYLATION USING GLYCYL-tRNA SYNTHETASE INHIBITORS” (The Scripps Research Institute, priority 2015, published 2019)

What was measured:
KM12 = test: NCI 60 Cell One-Dose Screen; assay type: cell-based, human; conditions: KM12, Colon Cancer; single dose 10^-5 M
NCI/ADR-RES = test: NCI 60 Cell One-Dose Screen; assay type: cell-based, human; conditions: Ovarian Cancer, single dose 10^-5 M
SF-268 = test: NCI 60 Cell One-Dose Screen; assay type: cell-based, human; conditions: SF-268, CNS Cancer; single dose 10^-5 M
SK-OV-3 = test: NCI 60 Cell One-Dose Screen; assay type: cell-based, human; conditions: SK-OV-3, Ovarian Cancer; single dose 10^-5 M
HCT-116 [1] = test: NCI 60 Cell One-Dose Screen; assay type: cell-based, human; conditions: HCT-116, Colon Cancer; single dose 10^-5 M
T-47D = test: NCI 60 Cell One-Dose Screen; assay type: cell-based, human; conditions: Breast Cancer, single dose 10^-5 M
PC-3 = test: NCI 60 Cell One-Dose Screen; assay type: cell-based, human; conditions: PC-3, Prostate Cancer; single dose 10^-5 M
A549/ATCC = test: NCI 60 Cell One-Dose Screen; assay type: cell-based, human; conditions: Non-Small Cell Lung Cancer, single dose 10^-5 M
SR = test: NCI 60 Cell One-Dose Screen; assay type: cell-based, human; conditions: Leukemia, single dose 10^-5 M
HCT-15 [2] = test: NCI 60 Cell One-Dose Screen; assay type: cell-based, human; conditions: HCT-15, Colon Cancer; single dose 10^-5 M
HS 578T = test: NCI 60 Cell One-Dose Screen; assay type: cell-based, human; conditions: Breast Cancer, single dose 10^-5 M
CCRF-CEM [3] = test: NCI 60 Cell One-Dose Screen; assay type: cell-based, human; conditions: Leukemia, single dose 10^-5 M
UACC-62 [4] = test: NCI 60 Cell One-Dose Screen; assay type: cell-based, human; conditions: UACC-62, Melanoma; single dose 10^-5 M
EKVX [5] = test: NCI 60 Cell One-Dose Screen; assay type: cell-based, human; conditions: Non-Small Cell Lung Cancer, single dose 10^-5 M
COLO 205 = test: NCI 60 Cell One-Dose Screen; assay type: cell-based, human; conditions: COLO 205, Colon Cancer; single dose 10^-5 M
SN12C = assay type: cell-based; conditions: Renal Cancer
DU-145 = assay type: cell-based; conditions: DU-145, Prostate Cancer
OVCAR-8 = assay type: cell-based; conditions: OVCAR-8, Ovarian Cancer
EKVX [6] = assay type: cell-based; conditions: Non-Small Cell Lung Cancer
HL-60(TB) = assay type: cell-based
MCF7 = assay type: cell-based; conditions: MCF7, Breast Cancer
MDA-MB-231/ATCC = assay type: cell-based; conditions: Breast Cancer
HCT-116 [7] = assay type: cell-based; conditions: HCT-116, Colon Cancer
RPMI-8226 = assay type: cell-based; conditions: RPMI-8226, Leukemia
HCT-15 [8] = assay type: cell-based; conditions: HCT-15, Colon Cancer
CCRF-CEM [9] = assay type: cell-based; conditions: Leukemia
K-562 = assay type: cell-based; conditions: K-562, Leukemia
SF-295 = assay type: cell-based; conditions: SF-295, CNS Cancer
LOX IMVI = assay type: cell-based; conditions: Melanoma
UACC-62 [10] = assay type: cell-based; conditions: UACC-62, Melanoma
MALME-3M = assay type: cell-based; conditions: Melanoma
RXF 393 = assay type: cell-based; conditions: RXF 393, Renal Cancer
786-0 = assay type: cell-based; conditions: 786-0, Renal Cancer
[11] = Homo sapiens, read-out: LC50 (the source's name)

`NCC(=O)NS(=O)(=O)OC[C@H]1O[C@@H](n2cnc3c(N)ncnc32)[C@H](O)[C@@H]1O` [GlySA, glycylsulfamoyladenosine] was tested, and the “Growth inhibition count (%)” value (KM12) was 0.7347%, the “Growth inhibition count (%)” value (NCI/ADR-RES) was 2.073% and the “Growth inhibition count (%)” value (SF-268) was 3.776%. For the same compound, the “Growth inhibition count (%)” value (SK-OV-3) was 6.281%, the “Growth inhibition count (%)” value (HCT-116 [1]) was 6.566% and the “Growth inhibition count (%)” value (T-47D) was 7.656%. For the same compound, the “Growth inhibition count (%)” value (PC-3) was 9.662%, the “Growth inhibition count (%)” value (A549/ATCC) was 9.701% and the “Growth inhibition count (%)” value (SR) was 9.926%. The “Growth inhibition count (%)” value (HCT-15 [2]) was 11.42%, the “Growth inhibition count (%)” value (HS 578T) was 16.07% and the “Growth inhibition count (%)” value (CCRF-CEM [3]) was 21.68%. The “Growth inhibition count (%)” value (UACC-62 [4]) was 30.71%, the “Growth inhibition count (%)” value (EKVX [5]) was 44.07% and the “Growth inhibition count (%)” value (COLO 205) was 48.51%. The GI50 (SN12C; Homo sapiens) was 0.562 µM, the CC50 (SN12C; [11]) was 95.5 µM and the LC50/GI50 (SN12C) was 169.8. For the same compound, the LC50/GI50 (DU-145) was over 144.5, the GI50 (DU-145; Homo sapiens) was 0.692 µM and the GI50 (OVCAR-8; Homo sapiens) was 2.46 µM. The CC50 (OVCAR-8; [11]) was over 100 µM, the LC50/GI50 (OVCAR-8) was over 40.7 and the GI50 (EKVX [6]; Homo sapiens) was 2.57 µM. It also gave an LC50/GI50 (EKVX [6]) of over 38.9, an LC50/GI50 (HL-60(TB); HL-60(TB), Leukemia) of over 36.3 and a GI50 (HL-60(TB); Homo sapiens, HL-60) of 2.75 µM. For the same compound, the GI50 (MCF7; Homo sapiens) was 2.82 µM, the CC50 (MCF7; [11]) was over 100 µM and the LC50/GI50 (MCF7) was over 35.5. For the same compound, the LC50/GI50 (MDA-MB-231/ATCC) was 34.7, the GI50 (MDA-MB-231/ATCC; Homo sapiens) was 0.525 µM and the CC50 (MDA-MB-231/ATCC; [11]) was 18.2 µM. For the same compound, the LC50/GI50 (HCT-116 [7]) was over 31.6, the GI50 (HCT-116 [7]; Homo sapiens) was 3.16 µM and the CC50 (HCT-116 [7]; [11]) was over 100 µM. It also gave a GI50 (RPMI-8226; Homo sapiens) of 3.31 µM, a CC50 (RPMI-8226; [11]) of over 100 µM and an LC50/GI50 (RPMI-8226) of over 30.2. The LC50/GI50 (HCT-15 [8]) was 27.5, the GI50 (HCT-15 [8]; Homo sapiens) was 2.95 µM and the CC50 (HCT-15 [8]; [11]) was 81.3 µM. For the same compound, the GI50 (CCRF-CEM [9]; Homo sapiens) was 3.71 µM, the LC50/GI50 (CCRF-CEM [9]) was over 26.9 and the GI50 (K-562; Homo sapiens, K562) was 3.71 µM. The LC50/GI50 (K-562) was over 26.9, the GI50 (SF-295; Homo sapiens) was 0.871 µM and the CC50 (SF-295; [11]) was 6.92 µM. It also gave an LC50/GI50 (SF-295) of 7.9, a GI50 (LOX IMVI; Homo sapiens) of 1.7 µM and a CC50 (LOX IMVI; [11]) of 7.41 µM. It also gave an LC50/GI50 (LOX IMVI) of 4.4, a GI50 (UACC-62 [10]; Homo sapiens) of 1.86 µM and an LC50/GI50 (UACC-62 [10]) of 4.2. It also gave a GI50 (MALME-3M; Homo sapiens) of 1.91 µM, a CC50 (MALME-3M; [11]) of 7.76 µM and an LC50/GI50 (MALME-3M) of 4.1. For the same compound, the GI50 (RXF 393; Homo sapiens) was 2.14 µM, the CC50 (RXF 393; [11]) was 8.32 µM and the LC50/GI50 (RXF 393) was 3.9. It also gave an LC50/GI50 (786-0) of 3.8, a GI50 (786-0; Homo sapiens) of 1.78 µM and a CC50 (786-0; [11]) of 6.76 µM. It also gave a GI50 (OVCAR-3; Homo sapiens, OVCAR-3) of 2 µM, a CC50 (OVCAR-3; Homo sapiens, OVCAR-3, read-out: LC50 (μM)) of 10 µM and an LC50/GI50 (OVCAR-3; OVCAR-3, Ovarian Cancer) of 5.0.
